Assay results reported in patent US11459323B2, “Monocyclic β-lactam compound for treating bacterial infection” (MEDSHINE DISCOVERY INC., priority 2018, dated 2022).

Tests used:
Experiment in all cases: MIC on clinically isolated bacteria
Assay type in all cases: cell-based
[1] = test system: Pseudomonas aeruginosa W13; conditions: read-out: MIC
Description: (§1) Twenty-five strains of clinically isolated Acinetobacter baumannii and twenty-seven strains of Pseudomonas aeruginosa were respectively selected and used to determine the minimum inhibitory concentration (MIC) of the compounds by micro-liquid dilution method according to the Institute of Clinical and Laboratory Standard (CLSI) requirements.

[2] = test system: Pseudomonas aeruginosa W27; conditions: read-out: MIC
Description: as §1

[3] = test system: Pseudomonas aeruginosa W6; conditions: read-out: MIC
Description: as §1

[4] = test system: Acinetobacter baumannii C270; conditions: Acinetobacter baumannii C270; read-out: Minimum Inhibitory Concentration (MIC)
Description: as §1

[5] = test system: Pseudomonas aeruginosa W32; conditions: read-out: MIC
Description: as §1

[6] = test system: Aeruginosa ATCC27853; conditions: Pseudomonas aeruginosa; Aeruginosa ATCC27853; read-out: MIC
Description: as §1

[7] = test system: Pseudomonas aeruginosa W20; conditions: read-out: MIC
Description: as §1

[8] = test system: Pseudomonas aeruginosa C761; conditions: read-out: MIC
Description: as §1

[9] = test system: Acinetobacter baumannii C281; conditions: Acinetobacter baumannii C281; read-out: Minimum Inhibitory Concentration (MIC)
Description: as §1

[10] = test system: Pseudomonas aeruginosa W42; conditions: read-out: MIC
Description: as §1

[11] = test system: Acinetobacter baumannii C315; conditions: Acinetobacter baumannii C315; read-out: Minimum Inhibitory Concentration (MIC)
Description: as §1

[12] = test system: Acinetobacter baumannii C319; conditions: Acinetobacter baumannii C319; read-out: Minimum Inhibitory Concentration (MIC)
Description: as §1

[13] = test system: Pseudomonas aeruginosa C745; conditions: read-out: MIC
Description: as §1

[14] = test system: Pseudomonas aeruginosa C762; conditions: read-out: MIC
Description: as §1

[15] = test system: Acinetobacter baumannii C332; conditions: Acinetobacter baumannii C332; read-out: Minimum Inhibitory Concentration (MIC)
Description: as §1

[16] = test system: Acinetobacter baumannii C333; conditions: Acinetobacter baumannii C333; read-out: Minimum Inhibitory Concentration (MIC)
Description: as §1

[17] = test system: Acinetobacter baumannii C313; conditions: Acinetobacter baumannii C313; read-out: Minimum Inhibitory Concentration (MIC)
Description: as §1

[18] = test system: Pseudomonas aeruginosa C763; conditions: read-out: MIC
Description: as §1

[19] = test system: Pseudomonas aeruginosa W47; conditions: read-out: MIC
Description: as §1

[20] = test system: Pseudomonas aeruginosa W35; conditions: read-out: MIC
Description: as §1

[21] = test system: Pseudomonas aeruginosa M1; conditions: read-out: MIC
Description: as §1

[22] = test system: Acinetobacter baumannii C330; conditions: Acinetobacter baumannii C330; read-out: Minimum Inhibitory Concentration (MIC)
Description: as §1

[23] = test system: Pseudomonas aeruginosa M4; conditions: read-out: MIC
Description: as §1

[24] = test system: Pseudomonas aeruginosa W9; conditions: read-out: MIC
Description: as §1

[25] = test system: Acinetobacter baumannii C328; conditions: Acinetobacter baumannii C328; read-out: Minimum Inhibitory Concentration (MIC)
Description: as §1

[26] = test system: Pseudomonas aeruginosa W1; conditions: read-out: MIC
Description: as §1

[27] = test system: Acinetobacter baumannii C390; conditions: Acinetobacter baumannii C390; read-out: Minimum Inhibitory Concentration (MIC)
Description: as §1

[28] = test system: Pseudomonas aeruginosa W46; conditions: read-out: MIC
Description: as §1

[29] = test system: Pseudomonas aeruginosa W4; conditions: read-out: MIC
Description: as §1

[30] = test system: Pseudomonas aeruginosa W28; conditions: read-out: MIC
Description: as §1

[31] = test system: Acinetobacter baumannii C394; conditions: Acinetobacter baumannii C394; read-out: Minimum Inhibitory Concentration (MIC)
Description: as §1

[32] = test system: Acinetobacter baumannii C357; conditions: Acinetobacter baumannii C357; read-out: Minimum Inhibitory Concentration (MIC)
Description: as §1

[33] = test system: Acinetobacter baumannii C361; conditions: Acinetobacter baumannii C361; read-out: Minimum Inhibitory Concentration (MIC)
Description: as §1

[34] = test system: Pseudomonas aeruginosa C754; conditions: read-out: MIC
Description: as §1

[35] = test system: Acinetobacter baumannii C181; conditions: Acinetobacter baumannii C181; read-out: Minimum Inhibitory Concentration (MIC)
Description: as §1

[36] = test system: Acinetobacter baumannii C312; conditions: Acinetobacter baumannii C312; read-out: Minimum Inhibitory Concentration (MIC)
Description: as §1

[37] = test system: Pseudomonas aeruginosa W19; conditions: read-out: MIC
Description: as §1

[38] = test system: Pseudomonas aeruginosa W23; conditions: read-out: MIC
Description: as §1

[39] = test system: Acinetobacter baumannii C402; conditions: Acinetobacter baumannii C402; read-out: Minimum Inhibitory Concentration (MIC)
Description: as §1

[40] = test system: Acinetobacter baumannii C395; conditions: Acinetobacter baumannii C395; read-out: Minimum Inhibitory Concentration (MIC)
Description: as §1

[41] = test system: Pseudomonas aeruginosa W24; conditions: read-out: MIC
Description: as §1

Measured: MIC

CC1(C)[C@H](NC(=O)/C(=N\O[C@@H](COc2ccc3c(c2)CN(C(=N)NCCN)C3)C(=O)O)c2csc(N)n2)C(=O)N1OS(=O)(=O)O [Compound 44]
2 µg/mL: [5] | [7] | [16] | [18] | [19] | [26] | [35] | [41]
0.25 µg/mL: [20]
0.5 µg/mL: [1] | [6] | [10] | [21] | [23] | [29] | [34] | [38]
4 µg/mL: [2] | [3] | [13] | [14] | [24] | [30]
1 µg/mL: all other assays above

CC1(C)[C@H](NC(=O)/C(=N\O[C@@H](COc2ccc3c(c2)CN(C(=N)N(CCN)CCN)C3)C(=O)O)c2csc(N)n2)C(=O)N1OS(=O)(=O)O [Compound 45]
0.25 µg/mL: [23]
8 µg/mL: [8] | [28] | [32] | [33] | [37] | [39] | [40]
2 µg/mL: [6] | [20] | [29]
> 16 µg/mL: [3] | [13] | [14] | [18] | [30] | [35]
4 µg/mL: [1] | [10] | [21] | [34] | [38]
16 µg/mL: all other assays above
